Laboratory results from patent US9023386B2, “Microspheres comprising nanocapsules containing a lipophilic drug” (Yissum Research Development Company of the Hebrew …, priority 2006, dated 2015).

Experiments:
P-gp = experiment: Caco-2 uptake study (apparent permeability); type: in vitro ADME; details: human; Caco-2, 25 μg/ml tacrolimus, Hanks buffer pH 7.4, 60 min, without verapamil
Experimental: Caco-2 monolayers (passage 73) were grown in Dulbecco's modified Eagle's medium supplemented with 10% fetal bovine serum, 1% L-glutamine, 1% nonessential amino acids, and 5% antibiotic-antimycotic solution at 37° C. in humidified air, 5% CO2 atmosphere. The culture medium was first replaced after 72 h and every 48 h thereafter. The uptake studies were conducted with monolayers between 8 to 10 days in culture. All diffusion experiments were performed over 1 h at 37° C. Prior to the experiments, the culture medium was replaced with transport medium and cell monolayers were subsequently equilibrated for 30 min at 37° C. before the uptake study. Transport medium was Hanks buffer composed of 136.89 mM NaCl, 5.36 mM KCl, 0.34 mM Na2HPO4, 0.44 mM KH2PO4, 0.41 mM MgSO4 7H2O, 19.45 mM glucose, 1.26 mM CaCl2, 0.49 mM MgCl2.6H2O, 4.17 mM NaHCO3, 10 mM HEPES, and the pH was adjusted to 7.4. […] The lysate was collected in clean tube and tacrolimus was determined by HPLC as described above. […]
The apparent permeability (Papp, cm/s) was calculated according to the following equation described by Schrickx and Fink-Gremmels (J. Schrickx and J. Fink-Gremmels. P-glycoprotein-mediated transport of oxytetracycline in the Caco-2 cell model. J. Vet Pharmacol. Therap. 30: 25-31 (2007).

[1] = immunosuppression; cited from earlier work
[2] = In-vitro stability of tacrolimus in rat intestinal juice (pH 6.5); type: in vitro ADME
Experimental: The following solutions were added sequentially to a test tube: 300 μl of freshly thawed intestinal juice, 60 μl of 0.6 M phosphate buffer, pH 6.5 (the pH of the mixture of intestinal juice) and 25 μg/ml of tacrolimus in various formulations (up to 1.5 ml). The mixtures were stirred and incubated at 37° C. over time. At given time intervals of 5, 10, 20, 30, 45, 60, 90 and 120 min, the samples were withdrawn from the incubation, mixed with 150 μl of 0.5 M hydrochloric acid and 2 ml of ethyl acetate. The resulting mixtures were stirred vigorously and centrifuged at 4000 rpm (equivalent to 3000 g) over 10 min. The extraction of tacrolimus by ethyl acetate was repeated three times to ensure total removal of the drug from the mixtures. The different ethyl acetate layers (upper layers) were transferred to clean tubes and evaporated under nitrogen to dryness. The combined residues were dissolved in 1 ml of acetonitrile, and 50 μl were injected in the HPLC under the following conditions: Mobile phase Acetonitrile 100%, Flow rate 0.5 ml/min, Wavelength—213 nm, Column—LiChrospher® 100 RP-18 (5 μm), 4/120 mm.

[3] = cited from earlier work

## C=CC[C@@H]1/C=C(\C)C[C@H](C)C[C@H](OC)[C@H]2O[C@@](O)(C(=O)C(=O)N3CCCC[C@H]3C(=O)O[C@H](/C(C)=C/[C@@H]3CC[C@@H](O)[C@H](OC)C3)[C@H](C)[C@@H](O)CC1=O)[C@H](C)C[C@@H]2OC [tacrolimus]
P-gp
  Papp at 60 min, 25 μg/ml: 2.05 ± 0.26 ×10⁻⁶ cm/s
[1]
  potency relative to cyclosporine: 10-100 times
[2]; PBS pH 6.5, no intestinal juice, 120 min incubation
  tacrolimus stability incubated only with PBS (Control (−)): remained intact
[2]; intestinal juice with PBS pH 6.5, 37° C., 25 μg/ml tacrolimus, up to 120 min
  initial tacrolimus concentration decomposed / reduced: at least 50%
[3]; in vivo, po
  oral bioavailability: 10-25%
[3]; in vivo
  dose excreted unchanged in the urine: Less than 1%
  drug bound by erythrocytes: 75-80%
  whole blood concentrations relative to plasma concentrations: 10- to 30 times
[3]; liver transplant patients
  elimination half-life: about 12 hours
